# Test results reported in US9944968B2, “Control of protein glycosylation by culture medium supplementation and cell culture process parameters” (Biogen MA Inc., priority 2013, dated 2018).
# Tests used:
# FcγRIIIa = assay: % FcγRIIIa binding of purified product relative to Enbrel innovator material; details: for % FcγRIIIa: Day 14 product, ProA and HIC purified, relative to Enbrel innovator material, hypoxanthine 1 mM or guanine 0.2 mM bolus D6; for levels of FcγRIIIa binding: addition to fed-batch shake flask cultures
# [1] = tested on: immunoadhesin-expressing CHO cells; assay: Fed-batch shake flask culture of immunoadhesin-expressing CHO cells: N-glycan (HILIC-UPLC) and ProG titer; type: cell-based, Chinese hamster; details: for Titer: Day 14 harvest; for % afucose / % charged / % galactosylation: fed-batch shake flask; for % afucose levels: addition to fed-batch shake flask cultures
# Experimental: FIG. 3A and FIG. 3B. Effect of hypoxanthine and guanine on the growth (FIG. 3A) and viability (FIG. 3B) of fed-batch shake flask cultures of immunoadhesin-expressing CHO cells. Copper (II) sulfate was delivered as part of the 5×-concentrated DMEM/F12 feed media at a concentration of 1 mM in the feed media. The Day 14 final concentration of CuSO4 in the culture was 0.2 mM due to 20% feeding. Hypoxanthine was delivered as a 1 mM bolus from a 200 mM stock solution on Day 6 after the temperature shift. Guanine was delivered as a 0.2 mM bolus from a 100 mM stock solution on Day 6 after the temperature shift.
# FIG. 4A and FIG. 4B. Effect of copper (II) sulfate on the growth (FIG. 4A) and viability (FIG. 4B) of fed-batch shake flask cultures of immunoadhesin-expressing CHO cells. Copper (II) sulfate was delivered as part of the 5×-concentrated DMEM/F12 feed media at a concentration of 1 mM in the feed media. The Day 14 final concentration of CuSO4 in the culture was 0.2 mM, due to 20% feeding. Alternatively, copper (II) sulfate was delivered as 0.2 mM and 0.5 mM boli on Day 6 from a stock solution.
# Cell culture methods: Cells were thawed and maintained as in a previous report (Kshirsagar, et al. 2012 Biotechnol Bioeng, Huang, et al. Biotechnology Progress 26(5):1400-1410 (2010)). Basal medium for thaw and passing was the same as in previous reports (Kshirsagar/Huang). Briefly, cells were thawed and maintained in 3 L shake flasks (Corning Life Sciences, Corning, N.Y.) with 1 L working volumes and were passaged every 2-3 days. For maintenance cultures the incubator was controlled at 37° C. and 5% CO2. […]
# (§1) Copper (II) sulfate, hypoxanthine, guanine, glucosamine, and galactose were delivered to two different immunoadhesin-expressing CHO cell cultures either as part of the feed media or as boli from distinct stock solutions. The typical culture process is a 14-day process that consists of a growth phase from Day 0 to Day 6 at 37° C. and a protein production phase from Day 6 to Day 14 at 30° C.
# CHO-602 = CHO-602 fed-batch shake flask culture: N-glycan (HILIC-UPLC), sialylation and ProG titer; type: cell-based, Chinese hamster; details: for % NGNA / % afucose / TSA (mol/chain): Day 12, GlcN 10 mM bolus D6, combination: plus galactose 20 g/L in feed (4 g/L final)
# Experimental: FIG. 2A and FIG. 2B. Effect of glucosamine and galactose on the growth (FIG. 2A) and viability (FIG. 2B) of fed-batch shake flask cultures of immunoadhesin-expressing CHO cells. Glucosamine was delivered as 10 mM boli on Day 6 for the 10 mM conditions and again on Day 8 for the 20 mM condition. In the glucosamine and galactose combination conditions, galactose was delivered as part of the 5×-concentrated DMEM/F12 feed media at a concentration of 20 g/L in the feed. The Day 14 final concentration of galactose was 4 g/L, due to 20% feeding.
# FIG. 6A and FIG. 6B. Effect of copper (II) sulfate and Hypoxanthine-Thymidine (HT) supplement on the growth (FIG. 6A) and viability (FIG. 6B) of immunoadhesin-expressing CHO cells in fed-batch shake flasks. […] Copper (II) sulfate, hypoxanthine, and thymidine were delivered as part of the 5×-concentrated DMEM/F12 feed media at a concentration of 1 mM, 1 mM, and 0.16 mM respectively in the feed media for the HT Low condition and 1 mM, 3 mM, and 0.5 mM respectively in the feed media for the HT High condition. The Day 14 final concentration of CuSO4, hypoxanthine, and thymidine in the culture was 0.30 mM, 0.30 mM, and 0.05 mM respectively for the HT Low condition and 0.30 mM, 1 mM, and 0.16 mM respectively for the HT High condition due to 30% feeding.
# Cell culture methods: Cells were thawed and maintained as in a previous report (Kshirsagar, et al. 2012 Biotechnol Bioeng, Huang, et al. Biotechnology Progress 26(5):1400-1410 (2010)). Basal medium for thaw and passing was the same as in previous reports (Kshirsagar/Huang). Briefly, cells were thawed and maintained in 3 L shake flasks (Corning Life Sciences, Corning, N.Y.) with 1 L working volumes and were passaged every 2-3 days. For maintenance cultures the incubator was controlled at 37° C. and 5% CO2.
# (§2) Offline analysis: Samples were taken on most days and analyzed with a variety of equipment. Cell density and viability were measured using the standard technique of trypan blue exclusion using a Cedex (Roche Innovatis AG, Germany). Cell viability and growth rate of the various cultures were measured during the culture time course at specific days post-inoculation.
# as §1
# CHO-043 cells = assay: CHO-043 fed-batch shake flask culture: N-glycan (HILIC-UPLC), sialylation and ProG titer of the expressed immunoadhesin; type: cell-based, Chinese hamster
# Experimental: FIG. 1A and FIG. 1B. Effect of glucosamine and galactose on the growth (FIG. 1A) and viability (FIG. 1B) of fed-batch shake flask cultures. Glucosamine was delivered as two 10 mM boli, each on Day 2 and Day 4 in both the glucosamine alone condition and the glucosamine/galactose combination condition. […] The Day 14 final concentration of galactose was 6 g/L, due to 30% feeding. Cell line: The cell line used in this study produced a growth factor receptor immunoadhesin polypeptide. The cell line was constructed using DG44 adapted to grow in serum-free medium (Prentice, 2007). The cell line DUXB11 was also used in this study. Cell culture methods: Cells were thawed and maintained as in a previous report ([…] al. 2012 Biotechnol Bioeng, Huang, et al. Biotechnology Progress 26(5):1400-1410 (2010)). Basal medium for thaw and passing was the same as in previous reports ([…]). Briefly, cells were thawed and maintained in 3 L shake flasks (Corning Life Sciences, Corning, N.Y.) with 1 L working volumes and were passaged every 2-3 days. For maintenance cultures the incubator was controlled at 37° C. and 5% CO2. Offline analysis: Samples were taken on most days and analyzed with a variety of equipment. Cell density and viability were measured using the standard technique of trypan blue exclusion using a Cedex (Roche Innovatis AG, Germany). Cell viability and growth rate of the various cultures were measured during the culture time course at specific days post-inoculation. […] The typical culture process is a 14-day process that consists of a growth phase from Day 0 to Day 6 at 37° C. and a protein production phase from Day 6 to Day 14 at 30° C. [table]
# [2] = tested on: immunoadhesin-expressing CHO cells; assay: 3 L fed-batch bioreactor culture of immunoadhesin-expressing CHO cells: N-glycan (HILIC-UPLC), TSA and ProG titer; type: cell-based, Chinese hamster
# Experimental: FIG. 5A and FIG. 5B. […] Copper (II) sulfate was delivered as part of the 5×-concentrated DMEM/F12 feed media at a concentration of 1 mM in the feed media. The Day 14 final concentration of CuSO4 in the culture was 0.25 mM, due to 25% feeding. In the CuSO4, glucosamine, and galactose combination conditions, copper (II) sulfate was delivered as part of the 5×-concentrated DMEM/F12 feed media at a concentration of 1 mM in the feed media. The Day 14 final concentration of CuSO4 in the culture was 0.22 mM, due to 22% feeding. Glucosamine was delivered as two 10 mM boli, each on Day 6 and Day 8. Galactose was delivered as part of the 5×-concentrated DMEM/F12 feed media from Day 6-14 at a concentration of 20 g/L in the feed. The Day 14 final concentration of galactose was 2.4 g/L, due to 12% feeding from Day 6-14. In the CuSO4 and hypoxanthine condition, copper (II) sulfate and hypoxanthine were delivered as part of the 5×-concentrated DMEM/F12 feed media at a concentration of 1 mM and 3 mM, respectively, in the feed media. The Day 14 final concentrations of CuSO4 and hypoxanthine in the culture were 0.23 mM and 0.7 mM, due to 23% feeding.
# Bioreactor culture conditions: Fed batch cultures were performed in 5 L glass Applikon vessels using Finesse TruBio DV controllers (Finesse Solutions, San Jose, Calif.) with an initial working volume between 2-2.5 L. Bioreactors were seeded at constant seed density of 4×10^5 cells/ml. Concentrated feed medium was delivered on days 3, 5, and every day or every other day following through harvest. Temperature was maintained at 35° C. or 36° C. and pH was controlled at 7.1+/−0.2 by the addition of either 1 M sodium carbonate or carbon dioxide. Dissolved oxygen was maintained at 30%-40% by air and oxygen sparge using a drilled hole sparger. Agitation was maintained between 200-400 RPM throughout the culture to limit total gas flow, while an overlay was maintained between 0.005 and 0.04 vvm.
# as §2, §1
# [3] = ExptA, ProG, hypoxanthine 1 mM or guanine 0.2 mM bolus D6
# [4] = ExptA, Day 14, hypoxanthine 1 mM or guanine 0.2 mM bolus D6
# [5] = ExptB, ProG, hypoxanthine 1 mM or guanine 0.2 mM bolus D6
# [6] = ExptB, Day 14, hypoxanthine 1 mM or guanine 0.2 mM bolus D6
# [7] = Day 12, GlcN two 10 mM boli D2, D4, combination: plus galactose 20 g/L in feed (6 g/L final)
# [8] = Day 12, GlcN two 10 mM boli D2, D4, combination: plus galactose 20 g/L in feed (6 g/L final), listed as glucosamine
# [9] = Day 14, CuSO4 1 mM in feed (0.25 mM final; 0.22 mM in combination), GlcN two 10 mM boli D6, D8, galactose 2.4 g/L final
# [10] = feed supp. w/1 mM CuSO4 (0.2 mM final Day 14), Day 12
structure (smiles),measurement,setting,value
"O=c1[nH]cnc2nc[nH]c12 [Hypoxanthine, hypoxanthine]",% FcγRIIIa,FcγRIIIa; ExptA,85%
same,% FcγRIIIa,FcγRIIIa; ExptB,122%
same,levels of FcγRIIIa binding,FcγRIIIa,within the range of a comparator polypeptide
same,Titer,[1]; [3],1.7 g/L
same,% afucose,[1]; [4],9.5%
same,Titer,[1]; [5],1.6 g/L
same,% afucose,[1]; [6],8.3%
same,% afucose levels,[1],no change
"Nc1nc2nc[nH]c2c(=O)[nH]1 [Guanine, guanine]",% FcγRIIIa,FcγRIIIa; ExptA,92%
same,% FcγRIIIa,FcγRIIIa; ExptB,121%
same,levels of FcγRIIIa binding,FcγRIIIa,within the range of a comparator polypeptide
same,Titer,[1]; [3],1.5 g/L
same,% afucose,[1]; [4],10.5%
same,Titer,[1]; [5],1.6 g/L
same,% afucose,[1]; [6],10.2%
same,% afucose levels,[1],no change
"N[C@H]1C(O)O[C@H](CO)[C@@H](O)[C@@H]1O (some centres unmarked) [GlcN, glucosamine]",% NGNA,CHO-602,1.3%
same,% afucose,CHO-602,8.9%
same,TSA (mol/chain),CHO-602,11.1 mol/chain
same,% NGNA,CHO-602; listed as glucosamine,little effect
same,% afucose,CHO-602; listed as glucosamine,little effect
same,TSA (mol/chain),CHO-602; listed as glucosamine,reduce sialylation
same,Titer,"CHO-602; Day 14 harvest, ProG, GlcN 10 mM bolus D6, combination: plus galactose (4 g/L final)",1.4 g/L
same,% NGNA,CHO-043 cells; [7],3.8%
same,% afucose,CHO-043 cells; [7],1.7%
same,% α-gal,CHO-043 cells; [7],2.4%
same,TSA (mol/chain),CHO-043 cells; [7],6.6 mol/chain
same,% α-gal,CHO-043 cells; [8],reduced
same,TSA (mol/chain),CHO-043 cells; [8],6 mol/chain
same,Titer,"CHO-043 cells; Day 12 harvest, ProG, GlcN two 10 mM boli D2, D4, combination: plus galactose (6 g/L final)",1.8 g/L
"O=S(=O)([O-])[O-].[Cu+2] [CuSO4, copper (II) sulfate]",% NGNA,[2]; [9],0.7%
same,% afucose,[2]; [9],7.1%
same,% charged,[2]; [9],41.9%
same,% galact.,[2]; [9],65.4%
same,% α-gal,[2]; [9],0.4%
same,TSA (mol/chain),[2]; [9],13.5 mol/chain
same,Titer,"[2]; Day 14 harvest, CuSO4 1 mM in feed, combination with GlcN two 10 mM boli and galactose 2.4 g/L final",2.0 g/L
same,Titer,[1]; 0.2 mM CuSO4 D6 bolus,1.9 g/L
same,% afucose,"[1]; 0.2 mM CuSO4 D6 bolus, Day 12",8.2%
same,% charged,"[1]; 0.2 mM CuSO4 D6 bolus, Day 12",42.1%
same,% galactosylation,"[1]; 0.2 mM CuSO4 D6 bolus, Day 12",70.3%
same,Titer,[1]; 0.5 mM CuSO4 D6 bolus,1.9 g/L
same,% afucose,"[1]; 0.5 mM CuSO4 D6 bolus, Day 12",8.2%
same,% charged,"[1]; 0.5 mM CuSO4 D6 bolus, Day 12",42.4%
same,% galactosylation,"[1]; 0.5 mM CuSO4 D6 bolus, Day 12",68.5%
same,"% afucose, % galactosylation, and % charged levels of N-linked glycosylation","[1]; copper (II) sulfate alone, shake flask",toward values associated with a comparator polypeptide
same,Titer,[1]; feed supp. w/1 mM CuSO4 (0.2 mM final Day 14),1.8 g/L
same,% afucose,[1]; [10],8.4%
same,% charged,[1]; [10],43.7%
same,% galactosylation,[1]; [10],62.7%
